The results in this text go back to patent US9737476B2, “Cosmetic use of an albizia julibrissin extract and corresponding topical composition” (Sederma, priority 2011, dated 2017).

One assay relates to soluble bovine elastin. Briefly: Non enzymatic glycation of elastin with fructose (fluorescence). Type of assay: biochemical. As for the experimental part: Non-enzymatic glycation occurring between a protein and a reducing sugar like fructose or glucose is a spontaneous and slow reaction that can be accelerated by heat. In this test, the protein is soluble bovine elastin and the reducing sugar is fructose. They are incubated with or without test products at 50° C. for 9 days. Final products resulting from glycation may be quantified by fluorescence (λex=360 nm and λem=460 nm).

In the next assay the test system is MMP1. Briefly: Metalloproteinase in culture media after cigarette smoke extract stress (ELISA). Type of assay: cell-based, human. The settings on record: Trolox 500 μM. As for the experimental part: Human dermal fibroblasts are cultured until confluence. Then cells are contacted with or without the test products during 24 hours. Then cells are stressed with an extract of cigarette smoke with or without the test products. After a last incubation with or without the test products, metallo-proteinases MMP1 and MMP2 present in the culture media are measured by ELISA and reduced to the number of cells (evaluated with the Hoescht reagent).
(An ELISA detects its analyte on a solid surface through an enzyme-linked reagent.)

The test system of a further assay is Fibroblasts. Briefly: Accumulation of lipofuscin AGE-pigment (dityrosine marker). Type of assay: cell-based, human. Particulars: Trolox 500 μM; p < 0.01. The source says: Principle and protocol: MGO is indirectly involved in the production of another group of toxins called lipofuscin. This pigment, which is seen on skin sections, is yellow in colour. It is poorly characterised as it is formed from an aggregate of different damaged cell components. Reduced functioning of the proteasome allows it to accumulate. Glycation (and therefore alteration) of the proteasome promotes the accumulation of this toxic pigment.
The same “fatiguing” cell stress as above in point 2a was used, alternating two rest periods (+/− of Albizia Julibrissin extract) and 2 periods of stress (+/− the Albizia Julibrissin extract with 500 μM microns of MGO). At the end of the second glycating stress, a dosage of the lipofuscin marker, the dityrosine was performed on the cell and reduced to the number of cells.

Assay [1] has as its system human dermal fibroblasts (HDF). Briefly: Measurement of carboxymethyl-lysine (CML) released by fibroblasts after MGO glycating stress (Elisa). Type of assay: cell-based. The settings on record: aminoguanidine 0.03%; p < 0.01. As for the experimental part: For the tests achieved on cell cultures, a hydro-glycolic extract obtained according to Example A) above comprising 2% of albizine was used at 0.006% diluted in aqueous excipients, of the type of cell culture media.
Principle and protocol: CML, a specific type of AGEs, accumulates during time in particular on the dermis proteins synthesized by fibroblasts. In vitro, on fibroblasts in culture, it is possible to accelerate this phenomenon by a glycating stress.
500 μM of methylglyoxal (MGO) were applied to confluent human dermal fibroblasts (HDF) to provoke AGE formation. After this glycating contact at 37° C. during 4 days, the MGO was removed from the cultures by rinsing and the Albizia Julibrissin extract was applied for 5 days. The supernatants were then removed for Elisa measurement of CML released by the fibroblasts. Cells were counted in parallel from the cell layers. Two independent tests were performed.

Turning to Darutoside, the Glycation with soluble bovine elastin (15 ppm (combination: 15 ppm Darutoside + 15 ppm extract), elastin + fructose, 50° C., 9 days, control 6096 +/− 438) is reported as 5843 +/− 383 UFA.

As for `Cc1c(C)c2c(c(C)c1O)CCC(C)(C(=O)O)O2` (stereo not drawn) [Trolox], in the assay with MMP1 (control stress 9200 +/− 1590), the MMP1 is 3962 +/− 759 ng/10^6 cells. In addition, in the assay with MMP1 (p < 0.05), the “% change in MMP1 vs. control stress” value is −57%; p < 0.05. For the same molecule, in the assay with Fibroblasts, the “% change in dityrosine, positive MGO control” value is listed as “*AFU: Arbitrary fluorescence unit; positive MGO control: Trolox 500 μM: −61.1% (p < 0.01)”.

On to `N=C(N)NN` [aminoguanidine], for which, in assay [1], the “% change in CML, positive control” value is listed as “Positive control aminoguanidine 0.03%; −41% CML; (p < 0.01)”. In addition, in the assay with soluble bovine elastin (aminoguanidine 0.03%, p < 0.01), the “% change in glycation vs. control” value is reported as “Aminoguanidine 0.03%: −99%; p < 0.01”.
